Laboratory results reported in US8754075B2, “1,3-oxazines as BACE1 and/or BACE2 inhibitors” (Hoffmann-La Roche Inc., priority 2011, dated 2014).

Tests used:
BACE1 = BACE1 (Homo sapiens (Human), UniProt P56817); experiment: Cellular Aβ-lowering assay; assay type: cell-based; conditions: HEK293 cells stably expressing human APP wt (APP695); Aβ40 in supernatant by ELISA after 18-20 hrs
Protocol: Cellular Aβ-Lowering Assay: Human HEK293 cells which are stably transfected with a vector expressing a cDNA of the human APP wt gene (APP695) were used to assess the potency of the compounds in a cellular assay. The cells were seeded in 96-well microtiter plates in cell culture medium (Iscove, plus 10% (v/v) fetal bovine serum, glutamine, penicillin/streptomycin) to about 80% confluence and the compounds were added at a 10× concentration in 1/10 volume of medium without FCS containing 8% DMSO (final concentration of DMSO was kept at 0.8% v/v). After 18-20 hrs incubation at 37° C. and 5% CO2 in a humidified incubator the culture supernatant was harvested for the determination of Aβ40 concentrations. […] After blocking of non-specific binding sites with e.g. 1% BSA and washing, the culture supernatants were added in suitable dilutions together with a horseradish peroxidase-coupled Aβ detection antibody (e.g., antibody 4G8, Senetek, Maryland Heights, Mo.) and incubated for 5 to 7 hrs. Subsequently the wells of the microtiter plate were washed extensively with Tris-buffered saline containing 0.05% Tween 20 and the assay was developed with tetramethylbenzidine/H2O2 in citric acid buffer. After stopping the reaction with one volume […] the reaction was measured in an ELISA reader at 450 nm wavelength. The concentrations of Aβ in the culture supernatants were calculated from a standard curve obtained with known amounts of pure Aβ peptide.

BACE2 = BACE2 (Rattus norvegicus (Rat), UniProt Q6IE75); experiment: Assay for BACE inhibition by measuring cellular TMEM27 cleavage; assay type: cell-based; conditions: INS-TMEM27 (INS1e rat cell line, inducible hTMEM27); shed TMEM27 by ELISA
Excerpt: Assay for BACE Inhibition by Measuring Cellular TMEM27 Cleavage:
The assay uses the principle of inhibition of human TMEM27 cleavage by endogenous cellular BACE2 in the Ins1e rat cell line and shedding from the cell surface into the culture medium, followed by detection in an ELISA assay Inhibition of BACE2 prevents the cleavage and shedding in a dose-dependent manner.
The stable cell line “INS-TMEM27” represents an INS1e-derived cell line with inducible expression (using the TetOn system) of full-length hTMEM27 in a doxycycline-dependent manner. The cells are cultured throughout the experiment in RPMI1640+Glutamax (Invitrogen) Penicillin/Streptomycin, 10% Fetal bovine serum, […], […], 100 micrograms/ml G418 and 100 microgram/ml hygromycin and are grown inadherent culture at 37° C. in a standard CO2 cell culture incubator.
INS-TMEM27 cells are seeded in 96-well plates. After 2 days in culture, BACE2 inhibitor is added in a range of concentrations as required by the assay and after a further two hours, doxycycline is added to a final concentration of 500 ng/ml. The cells are incubated for a further 46 hours and the supernatant harvested for detection of shed TMEM27.
An ELISA assay (using a pair of mouse anti-human-TMEM27 antibodies, raised against the extracellular domain of TMEM27) is used for detection of TMEM27 in the culture medium. An EC50 for BACE2 inhibition is calculated using the ELISA readout for each inhibitor concentration with standard curve-fitting software such as XLFit for the Excel spreadsheet program.

Sequence of BACE2 (Q6IE75 63-514): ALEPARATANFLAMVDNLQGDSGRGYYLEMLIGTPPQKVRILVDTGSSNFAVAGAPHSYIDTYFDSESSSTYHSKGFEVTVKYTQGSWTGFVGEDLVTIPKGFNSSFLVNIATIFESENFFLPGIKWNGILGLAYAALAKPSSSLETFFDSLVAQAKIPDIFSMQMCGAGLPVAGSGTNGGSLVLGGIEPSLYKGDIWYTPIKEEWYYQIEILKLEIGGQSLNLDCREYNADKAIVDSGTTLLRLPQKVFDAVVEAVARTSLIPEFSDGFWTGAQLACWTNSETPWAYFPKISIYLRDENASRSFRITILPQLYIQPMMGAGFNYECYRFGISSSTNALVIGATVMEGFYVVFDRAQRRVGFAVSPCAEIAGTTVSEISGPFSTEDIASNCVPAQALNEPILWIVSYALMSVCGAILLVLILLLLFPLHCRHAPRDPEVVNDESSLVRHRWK
Sequence of BACE1 (P56817 46-501): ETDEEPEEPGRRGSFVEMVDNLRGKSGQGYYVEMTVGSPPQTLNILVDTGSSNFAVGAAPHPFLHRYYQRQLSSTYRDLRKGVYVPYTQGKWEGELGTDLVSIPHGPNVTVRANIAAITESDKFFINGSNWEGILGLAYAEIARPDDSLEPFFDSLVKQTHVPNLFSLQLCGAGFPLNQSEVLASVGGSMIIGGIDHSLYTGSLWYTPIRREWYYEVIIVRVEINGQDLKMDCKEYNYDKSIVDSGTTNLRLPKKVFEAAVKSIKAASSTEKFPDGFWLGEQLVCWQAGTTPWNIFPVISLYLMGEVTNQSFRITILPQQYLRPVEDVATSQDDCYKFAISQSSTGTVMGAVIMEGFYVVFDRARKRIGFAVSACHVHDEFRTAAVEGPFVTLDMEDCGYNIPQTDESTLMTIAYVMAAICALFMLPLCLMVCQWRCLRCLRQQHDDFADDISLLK

## C[C@]1(c2cc(NC(=O)c3ccc(Cl)cn3)ccc2F)N=C(N)OC[C@H]1F [Example 34, 5-Chloro-pyridine-2-carboxylic acid [3-((4R,5S)-2-amino-5-fluoro-4-methyl-5,6-dihydro-4H-[1,3]oxazin-4-yl)-4-fluoro-phenyl]-amide]
BACE1
  IC50: 42 nM

## C[C@]1(F)COC(N)=N[C@]1(C)c1cc(NC(=O)c2nn(C(F)F)cc2Cl)ccc1F [Example 40, 4-Chloro-1-difluoromethyl-1H-pyrazole-3-carboxylic acid [3-((4R,5R)-2-amino-5-fluoro-4,5-dimethyl-5,6-dihydro-4H-[1,3]oxazin-4-yl)-4-fluoro-phenyl]amide]
BACE1
  IC50: 2 nM
BACE2
  IC50: 31 nM

## Cn1nc(C(F)(F)F)cc1C(=O)Nc1ccc(F)c([C@@]2(C)N=C(N)OC[C@@H]2F)c1 [Example 27, 2-Methyl-5-trifluoromethyl-2H-pyrazole-3-carboxylic acid [3-((4R,5R)-2-amino-5-fluoro-4-methyl-5,6-dihydro-4H-[1,3]oxazin-4-yl)-4-fluoro-phenyl]-amide]
BACE1
  IC50: 90 nM
BACE2
  IC50: 709 nM

## C[C@]1(c2cc(NC(=O)c3ccc(OCC(F)(F)C(F)(F)F)cn3)ccc2F)N=C(N)OC[C@@H]1F [Example 25, 5-(2,2,3,3,3-Pentafluoro-propoxy)-pyridine-2-carboxylic acid [3-((4R,5R)-2-amino-5-fluoro-4-methyl-5,6-dihydro-4H-[1,3]oxazin-4-yl)-4-fluoro-phenyl]-amide]
BACE1
  IC50: 52 nM

## CC#CCOc1cnc(C(=O)Nc2ccc(F)c([C@@]3(C)N=C(N)OC[C@]3(C)F)c2)cn1 [Example 50, 5-But-2-ynyloxy-pyrazine-2-carboxylic acid [3-((4R,5R)-2-amino-5-fluoro-4,5-dimethyl-5,6-dihydro-4H-[1,3]oxazin-4-yl)-4-fluoro-phenyl]-amide]
BACE1
  IC50: 0.1 nM

## C[C@]1(c2cc(NC(=O)c3ccc(C4CC4)cn3)ccc2F)N=C(N)OC[C@@H]1F [Example 22, 5-Cyclopropyl-pyridine-2-carboxylic acid [3-((4R,5R)-2-amino-5-fluoro-4-methyl-5,6-dihydro-4H-[1,3]oxazin-4-yl)-4-fluoro-phenyl]-amide]
BACE1
  IC50: 14 nM
BACE2
  IC50: 124 nM

## C[C@]1(c2cc(NC(=O)c3cnc(OCC(F)F)cn3)ccc2F)N=C(N)OC[C@@H]1F [Example 19, 5-(2,2-Difluoro-ethoxy)-pyrazine-2-carboxylic acid [3-((4R,5R)-2-amino-5-fluoro-4-methyl-5,6-dihydro-4H-[1,3]oxazin-4-yl)-4-fluoro-phenyl]-amide]
BACE1
  IC50: 8 nM

## C[C@]1(c2cc(NC(=O)c3ncc(C(F)(F)F)cc3Cl)ccc2F)N=C(N)OC[C@H]1F [Example 36, 3-Chloro-5-trifluoromethyl-pyridine-2-carboxylic acid [3-((4R,5S)-2-amino-5-fluoro-4-methyl-5,6-dihydro-4H-[1,3]oxazin-4-yl)-4-fluoro-phenyl]-amide]
BACE1
  IC50: 140 nM
BACE2
  IC50: 4030 nM

## C[C@]1(c2cc(NC(=O)c3ccc(OCC(F)(F)F)cn3)ccc2F)N=C(N)OC[C@@H]1OCC(F)(F)F [Example 49, 5-(2,2,2-Trifluoro-ethoxy)-pyridine-2-carboxylic acid {3-[(4R,5R)-2-amino-4-methyl-5-(2,2,2-trifluoro-ethoxy)-5,6-dihydro-4H-[1,3]oxazin-4-yl]-4-fluoro-phenyl}-amide]
BACE1
  IC50: 21 nM

## C[C@]1(c2cc(NC(=O)c3ccc(F)cn3)ccc2F)N=C(N)OC[C@@H]1F [Example 20, 5-Fluoro-pyridine-2-carboxylic acid [3-((4R,5R)-2-amino-5-fluoro-4-methyl-5,6-dihydro-4H-[1,3]oxazin-4-yl)-4-fluoro-phenyl]-amide]
BACE1
  IC50: 10 nM
BACE2
  IC50: 7 nM

## C[C@]1(F)COC(N)=N[C@]1(C)c1cc(NC(=O)c2ncc(Cl)cc2Cl)ccc1F [Example 39, 3,5-Dichloro-pyridine-2-carboxylic acid [3-((4R,5R)-2-amino-5-fluoro-4,5-dimethyl-5,6-dihydro-4H-[1,3]oxazin-4-yl)-4-fluoro-phenyl]-amide]
BACE1
  IC50: 2 nM
BACE2
  IC50: 4 nM

## C[C@]1(c2cc(NC(=O)C3(C#N)CC3)ccc2F)N=C(N)OC[C@@H]1F [Example 31, 1-Cyano-cyclopropanecarboxylic acid [3-((4R,5R)-2-amino-5-fluoro-4-methyl-5,6-dihydro-4H-[1,3]oxazin-4-yl)-4-fluoro-phenyl]-amide]
BACE1
  IC50: 75 nM

## Cc1cc(C(=O)Nc2ccc(F)c([C@@]3(C)N=C(N)OC[C@@H]3F)c2)nn1C [Example 30, 1,5-Dimethyl-1H-pyrazole-3-carboxylic acid [3-((4R,5R)-2-amino-5-fluoro-4-methyl-5,6-dihydro-4H-[1,3]oxazin-4-yl)-4-fluoro-phenyl]-amide]
BACE1
  IC50: 760 nM

## C[C@]1(c2cc(NC(=O)c3cncs3)ccc2F)N=C(N)OC[C@@H]1F [Example 29, Thiazole-5-carboxylic acid [3-((4R,5R)-2-amino-5-fluoro-4-methyl-5,6-dihydro-4H-[1,3]oxazin-4-yl)-4-fluoro-phenyl]-amide]
BACE1
  IC50: 250 nM

## C[C@]1(c2cc(NC(=O)c3ncc(C(F)(F)F)cc3F)ccc2F)N=C(N)OC[C@@H]1F [Example 12, 3-Fluoro-5-trifluoromethyl-pyridine-2-carboxylic acid [3-((4R,5R)-2-amino-5-fluoro-4-methyl-5,6-dihydro-4H-[1,3]oxazin-4-yl)-4-fluoro-phenyl]-amide]
BACE1
  IC50: 4 nM

## C[C@]1(c2cc(NC(=O)c3ccc(OCC(F)F)cn3)ccc2F)N=C(N)OC[C@@H]1F [Example 21, 5-(2,2-Difluoro-ethoxy)-pyridine-2-carboxylic acid [3-((4R,5R)-2-amino-5-fluoro-4-methyl-5,6-dihydro-4H-[1,3]oxazin-4-yl)-4-fluoro-phenyl]-amide]
BACE1
  IC50: 13 nM

## C[C@]1(c2cc(NC(=O)c3ccc(OCC(F)(F)C(F)F)cn3)ccc2F)N=C(N)OC[C@@H]1F [Example 24, 5-(2,2,3,3-Tetrafluoro-propoxy)-pyridine-2-carboxylic acid [3-((4R,5R)-2-amino-5-fluoro-4-methyl-5,6-dihydro-4H-[1,3]oxazin-4-yl)-4-fluoro-phenyl]-amide]
BACE1
  IC50: 17 nM

## C[C@]1(c2cc(NC(=O)c3cnc(OCF)cn3)ccc2F)N=C(N)OC[C@@H]1F [Example 10, 5-Fluoromethoxy-pyrazine-2-carboxylic acid [3-((4R,5R)-2-amino-5-fluoro-4-methyl-5,6-dihydro-4H-[1,3]oxazin-4-yl)-4-fluoro-phenyl]-amide]
BACE1
  IC50: 24 nM

## C[C@]1(c2cc(NC(=O)C3CC3)ccc2F)N=C(N)OC[C@@H]1F [Example 32, Cyclopropanecarboxylic acid [3-((4R,5R)-2-amino-5-fluoro-4-methyl-5,6-dihydro-4H-[1,3]oxazin-4-yl)-4-fluoro-phenyl]-amide]
BACE1
  IC50: 730 nM

## C[C@]1(c2cc(NC(=O)c3ccc(OCC4CC4)cn3)ccc2F)N=C(N)OC[C@@H]1F [Example 23, 5-Cyclopropylmethoxy-pyridine-2-carboxylic acid [3-((4R,5R)-2-amino-5-fluoro-4-methyl-5,6-dihydro-4H-[1,3]oxazin-4-yl)-4-fluoro-phenyl]-amide]
BACE1
  IC50: 15 nM

## C[C@]1(c2cc(NC(=O)c3ccc(OC(F)F)cn3)ccc2F)N=C(N)OC[C@@H]1F [Example 6, 5-Difluoromethoxy-pyridine-2-carboxylic acid [3-((4R,5R)-2-amino-5-fluoro-4-methyl-5,6-dihydro-4H-[1,3]oxazin-4-yl)-4-fluoro-phenyl]-amide]
BACE1
  IC50: 2 nM
